Source: patent publication US20030022814A1, “Method for treating or preventing depression” (priority 2002, published 2003)

Assays:
[1] = test system: PDE IV inhibitor-induced emesis in the ferret; assay: Ferret emesis: PDE4 inhibitors and neurokinin-1 receptor antagonists; type: in vivo; settings: NK-1 antagonist given before oral emetic dose of PDE IV inhibitor
Experimental: Ferret Emesis: PDE4 Inhibitors and Neurokinin-1 Receptor Antagonists
Intracerebroventricular (i.c.v.) administration was performed following a surgical implantation of an i.c.v. guide cannula. Under isoflurane anaesthesia, a 22 gauge stainless steel guide cannula (total length=20 mm) was lowered 9 mm below the surface of the skull, at the midline, 2 mm anterior to the cross-suture of the posterior edge of the skull. The tip of the guide cannula is then positioned 3-5 mm directly above the area postrema. The guide cannula was fixed to the skull using 2 screws and dental acrylic cement. The animals received antibiotic (Clamoxyl LA, SmithKline Beecham, Surrey, U.K.; 15 mg kg^−1 s.c.) and analgesic injections (Zenecarp, C-Vet Limited, Edmounds, U.K.; 5 mg kg^−1 s.c.) and were housed in individual cages. They were allowed at least 1 week to recover. Intracerebroventricular administration of drugs was performed by inserting an injection unit of 24-25 mm (level of the area postrema) or 27 mm (for brain tissue injection) length into the guide cannula and infusing 2 μl of the drug solution (or vehicle) over 1 minute. […]
Anti-emetic agents ondansetron (3 mg kg^−1 i.p.), and neurokinin-1 receptor antagonists (3 mg kg^−1 i.p. or s.c.) were administered 30 minutes prior to an oral challenge with an emetic dose of selected PDE IV inhibitors. […] The emetic response was monitored as described earlier. […]

emesis in ferrets = assay: Ferret emesis: PDE4 inhibitors and alpha-2 adrenoreceptor agonists/antagonists; settings: for emesis following administration of the drug itself: route not stated

COc1ccccc1CN[C@H]1CCCN[C@H]1c1ccccc1 [CP-99,994]
effect on PDE IV inhibitor-induced emesis [1]: abolished

Clc1cccc(Cl)c1N=C1NCCN1 [clonidine]
emesis induced by CT-2450 (emesis in ferrets; 250 μg kg−1 pre-treatment, CT-2450 30 mg kg−1 p.o., all animals treated): abolished | animals with complete protection against R-rolipram-induced emesis (emesis in ferrets; 250 μg kg−1 pre-treatment, R-rolipram 3 mg kg−1 p.o.): two out of three | animals with complete protection against RS14203-induced emesis (emesis in ferrets; 250 μg kg−1 pre-treatment, RS14203 1 mg kg−1 p.o.): five out of six | latency of onset of RS14203-induced emesis (emesis in ferrets; RS14203 1 mg kg−1 p.o. challenge): increased | number of retches and vomits induced by RS14203 (emesis in ferrets; RS14203 1 mg kg−1 p.o. challenge, clonidine 62.5-250 μg kg−1): dose-dependently decreased

CN1CC[C@]2(CCN3CCc4c(oc5ccccc45)[C@@H]3C2)N(C)C1=O.Cl [MK-912]
emesis following administration of the drug itself (emesis in ferrets): Emesis was also recorded

CS(=O)(=O)NCCN1C(=O)NC[C@]12CCN1CCc3c(oc4ccccc34)[C@@H]1C2 [MK-467]
emesis following administration of the drug itself (emesis in ferrets): Emesis was also recorded

COC(=O)[C@@H]1[C@H]2C[C@H]3c4[nH]c5ccccc5c4CCN3C[C@@H]2CC[C@@H]1O [yohimbine]
emesis (retching and vomiting) induced by the drug itself (emesis in ferrets; intraperitoneal injection): induced retching and vomiting in all ferrets treated
